These results are taken from US8377935B2, “Substituted aminopropenyl piperidine or morpholine derivatives as novel inhibitors of histone deacetylase” (Janssen Pharmaceutica N.V., priority 2005, dated 2013).

The nature of data set [1]: Metabolic stability with rat hepatocytes cell culture. Type of data set: in vitro ADME. The conditions noted are these: rat hepatocyte cell cultures, 5 μM. From the text: Metabolism of drugs means that a lipid-soluble xenobiotic or endobiotic compound is enzymatically transformed into (a) polar, water-soluble, and excretable metabolite(s). The major organ for drug metabolism is the liver. […] However, some metabolites may have enhanced activity or toxic effects. Thus drug metabolism may include both “detoxication” and “toxication” processes. One of the major enzyme systems that determine the organism's capability of dealing with drugs and chemicals is represented by the cytochrome P450 monooxygenases, which are NADPH dependent enzymes. Metabolic stability of compounds can be determined in vitro with the use of subcellular human tissue (see example C.5.a.). Here metabolic stability of the compounds is expressed as % of drug metabolised after 15 minutes incubation of these compounds with microsomes. Quantitation of the compounds was determined by LC-MS analysis. Metabolic stability of compounds can also be determined by calculating the half live of compounds in rat hepatocyte cells (see example C.5.b.). […]
Samples were prepared for LC-MS by addition of two volumes of DMSO. […] Of the resulting supernatant 50 μl was analysed by LC-MS. […]
Total injection volume of samples was 50 μL. […] The mass spectrometer was operated in positive ion mode in SIM adjusted to the mass of […] with a scan width of 1 Da for quantification purposes. […]

A further data set deals with p21 promoter. Description: p21 induction capacity, in vivo method (tumour fluorescence in nude mice). Details: key: inactive (no fluorescence measurable); weaker, identical or better than R306465; weaker, identical or better than R306465; weaker, identical or better than R306465. Conditions: oral administration, daily during 6 days, 20-40 mpk. On the procedure:
A first method tests the capacity of compounds to induce p21 as the consequence of HDAC inhibition at the cellular level. […] The reporter gene is a fluorescent protein and the expression of the reporter gene is measured as the amount of fluorescent light emitted (see example C.6.a.). The second method is an in vivo method wherein mice are used for screening the pharmaceutical activity of a compound. The above described stably transformed tumour cells can be administered to mice in an amount sufficient to effect production of a tumour. After the tumour cells had sufficient time to form a tumour, a potentially active compound can be administered to the animals and the effect of said compound On the tumour cells is evaluated by measuring the expression of the reporter gene. […]
A selected clone was injected subcutaneous (10^7 cells/200 μl) into the flank of nude mice and a calliper measurable tumour was obtained after 12 days. […] Tumours were evaluated for fluorescence by the in-house developed Automated Whole Body Imaging System (Fluorescent stereomicroscope type Olympus® SZX12 equipped with a GFP filter and coupled to a CCD camera type IAI® CV-M90 controlled by a software package based on the IMAQ Vision Software from National Instruments®). […]

Each structure is given as a SMILES string.

Turning to `O=C(NO)c1cnc(N2CCC(CNC(/C=C/c3ccccc3)CO)CC2)nc1` (centres unmarked) [Compound 1], in data set [1], the in vitro half-live was 103 min. The “tumour fluorescence (p21 induction) ranked against R306465” value in the data set on p21 promoter was “better”.
